Reference: patent publication US9283199B2, “Halogenated aliphatic carboxylic acids, oligomers and/or polymers thereof and their use in devitalizing external and internal neoplasms” (Cimas Limited, priority 2009, dated 2016)
Where two headings read alike, the source gives them in different places.

How the values were obtained:
[1] = test system: benign, viral, pre-malignant, non-metastasizing malignant and mucosal tumor lesions; experiment: Clinical study of topical DPA / DPA oligomer treatment of skin pathologies, long term follow-up (Example 1); assay type: in vivo, human; settings: all tumor types, 2-8 years follow-up
Description: Patients suffering from benign tumors, viral warts or mucosal membraneus tumors were administered with the tetramer form of DPA. In some cases, DPA, as a monomer, was used. Patients suffering from premalignant or malignant tumors were administered with longer oligomers of DPA.
In most cases, the DPA monomer or oligomer was administered only once and without anesthesia or other special conditions. Only in cases of patients suffering from Recklinghausen disease (a multiple form of peripheral Neurofibromatosis), when the number of skin tumor lesions was more than 100, multiple treatment sessions were performed. […]
The safety of DPA oligomer treatment was assessed by evaluating the treated skin lesion appearance, local skin reaction, vital sign measurements, adverse events and concomitant medications taken by the patient. […]
At the 3-week, 6-week and 12-week post-treatment visit(s), a clinical assessment was performed to determine whether treated lesions were visible at the target site. Pigmented lesions, suspected of being malignant, were further evaluated microscopically by the excision of a biopsy sample with a 3 mm margin from the lesion, using the radioelectro technique, and histopathologically examining the sample for evidence of residual or recurrence of tumor. […]

Storage stability of DPA = assay type: physicochemical; settings: stored in sealed brown glass containers between −4° C. and +50° C.
[2] = cited from earlier work
[3] = in vivo; cited from earlier work
[4] = in vivo; cited from earlier work; remark: listed apart in the source

CC(Cl)(Cl)C(=O)O [DPA, 2,2-Dichloropropanoic acid]
Very good result (++++) % ([1]; Total): 82.1% | satisfactory level of clinical results observed, % of the tumors [1]: 99.1% | chemoanalytical and biological (efficacy) stability (Storage stability of DPA): at least 5 years | solubility in water ([2]; DPA and all of its known breakdown products): dissolve easily in water | solubility in water ([2]; at 25° C.): 90 g/100 ml | solubility in organic solvents and lipids [2]: insoluble | half-life in human blood [3]: 36 to 72 h | accumulation in animal tissues [4]: does not build up in animal tissues
